Laboratory results taken from the NIST ThermoML archive (doi:10.1016/j.jct.2013.01.026).

How the values were obtained:
[1] = refractive index (other wavelength) (dimensionless); conditions: 298.15 K, 101.3 kPa, Liquid, Standard Abbe refractometry
[2] = refractive index (other wavelength) (dimensionless); wn = mass fraction of the nth substance listed; conditions: 298.15 K, 101.3 kPa, Liquid, Standard Abbe refractometry

CC(C)Cc1ccccc1 [(2-methylpropyl)benzene]
[1]
Conditions	refractive index
Wavelength=670 nm	1.48071
Wavelength=925 nm	1.47345

CC(C)Cc1ccccc1 [(2-methylpropyl)benzene] + CCCCCCCCCCCC
refractive index, [2]
Conditions	w2 = 0.0998	w2 = 0.2001	w2 = 0.3002	w2 = 0.4	w2 = 0.4999	w2 = 0.6	w2 = 0.7001	w2 = 0.8002	w2 = 0.9001
Wavelength=670 nm	1.47308	1.46588	1.45898	1.45233	1.44607	1.44006	1.43407	1.42875	1.42337
Wavelength=925 nm	1.46604	1.45912	1.45266	1.44638	1.44043	1.43444	1.42884	1.42387	1.4187

CC(C)Cc1ccccc1 [(2-methylpropyl)benzene] + c1ccc2c(c1)CCCC2
refractive index, [2]
Conditions	w2 = 0	w2 = 0.1003	w2 = 0.2	w2 = 0.2999	w2 = 0.3977	w2 = 0.4996	w2 = 0.6002	w2 = 0.699	w2 = 0.8001	w2 = 0.8997
Wavelength=670 nm	1.48071	1.48573	1.49084	1.49587	1.50109	1.50663	1.51197	1.51743	1.52313	1.52865
Wavelength=925 nm	1.47345	1.47803	1.48337	1.48805	1.49344	1.49865	1.50413	1.5092	1.51499	1.52005

CCCCCCCCCCCC [dodecane]
[1]
Conditions	refractive index
Wavelength=670 nm	1.41845
Wavelength=925 nm	1.41407

CCCCCCCCCCCC [dodecane] + CC(C)Cc1ccccc1
[2], w1 = 1
Conditions	refractive index
Wavelength=670 nm	1.41845
Wavelength=925 nm	1.41407

c1ccc2c(c1)CCCC2 [1,2,3,4-tetrahydronaphthalene]
[1]
Conditions	refractive index
Wavelength=670 nm	1.53479
Wavelength=925 nm	1.52642

c1ccc2c(c1)CCCC2 [1,2,3,4-tetrahydronaphthalene] + CCCCCCCCCCCC
refractive index, [2]
Conditions	w2 = 0	w2 = 0.1	w2 = 0.1999	w2 = 0.2999	w2 = 0.4001	w2 = 0.4999	w2 = 0.6002	w2 = 0.6999	w2 = 0.8	w2 = 0.9001
Wavelength=670 nm	1.53479	1.51956	1.505	1.49244	1.47987	1.46832	1.45728	1.44674	1.43694	1.42736
Wavelength=925 nm	1.52642	1.51181	1.49762	1.48558	1.47343	1.4622	1.45157	1.44149	1.43179	1.42273
